# Patent publication US8309558B2, “Compounds for the treatment of hepatitis C” (Bristol-Myers Squibb Company, priority 2008, dated 2012)
# Test system: HCV replicon cells
# Test: HCV replicon FRET / luciferase assay (96-well plates)
# Assay type: cell-based
# Conditions: Hepatitis C virus, 24 h, Table 1d (class symbols); HCV replicon; read-out: EC50
# Source text: FRET Assay Preparation. To perform the HCV FRET screening assay, 96-well cell culture plates were used. The FRET peptide (Anaspec, Inc.) (Taliani et al., Anal. Biochem. 1996, 240, 60-67) contains a fluorescence donor, EDANS, near one end of the peptide and an acceptor, DABCYL, near the other end. The fluorescence of the peptide is quenched by […] resonance energy transfer (RET) between the donor and the acceptor, but as the NS3 protease cleaves the peptide the products are released from RET quenching and the fluorescence of the donor becomes apparent. The assay reagent was made as follows: 5× cell Luciferase cell culture lysis reagent from Promega (#E153A) diluted to 1× with dH2O, NaCl added to 150 mM final, the FRET peptide diluted to 20 μM final from a 2 mM stock.
# To prepare plates, HCV replicon cells, with or without a Renilla luciferase reporter gene, were trypsinized and placed into each well of a 96-well plate with titrated test compounds added in columns 3 through 12; columns 1 and 2 contained a control compound (HCV protease inhibitor), and the bottom row contained cells without compound. The plates were then placed in a CO2 incubator at 37° C.
# Assays. Subsequent to addition of the test compounds described above (FRET Assay Preparation), at various times the plate was removed and Alamar blue solution (Trek Diagnostics, #00-100) was added per well as a measure of cellular toxicity. After reading in a Cytoflour 4000 instrument (PE Biosystems), plates were rinsed with PBS and then used for FRET assay by the addition of 30 ul of the FRET peptide assay reagent described above (FRET Assay Preparation) per well. The plate was then placed into the Cytoflour 4000 instrument which had been set to 340 excite/490 emission, automatic mode for 20 cycles and the plate read in a kinetic mode. Typically, the signal to noise using an endpoint analysis after the reads was at least three-fold. Alternatively, after Alamar blue reading, plates were rinsed with PBS, 50 ul of DMEM (high glucose) without phenol red was added and plates were then used for luciferase assay using the Promega Dual-Glo Luciferase Assay System.
# Compound analysis was determined by quantification of the relative HCV replicon inhibition and the relative cytotoxicity values. To calculate cytoxicity values, the average Alamar Blue fluorescence signals from the control wells were set as 100% non-toxic. The individual signals in each of the compound test wells were then divided by the average control signal and multiplied by 100% to determine […]. To calculate the HCV replicon inhibition values, an average background value was obtained from the two wells containing the highest amount of HCV protease inhibitor at the end of the assay period. These numbers were similar to those obtained from naïve Huh-7 cells.
# The background numbers were then subtracted from the average signal obtained from the control wells and this number was used as 100% activity. The individual signals in each of the compound test wells were then divided by the averaged control values after background subtraction and multiplied by 100% to determine percent activity. EC50 values for a protease inhibitor titration were calculated as the concentration which caused a 50% reduction in FRET or luciferase activity. The two numbers generated for the compound plate, percent cytoxicity and percent activity were used to determine compounds of interest for further analysis.
row,Structure (SMILES),EC50
1,CNC(=O)c1c(-c2ccc(F)cc2)oc2ccc(-c3cc(C(=O)NC4(C(=O)Nc5nc(C)no5)CC4)c(OC)cc3C)cc12,1 to 250 nM
2,CNC(=O)c1c(-c2ccc(F)cc2)oc2ccc(-c3cc(C(=O)NC4(c5ccccn5)CC4)c(OCC4CCCCO4)cc3C)cc12 (stereo not shown),1 to 250 nM
3,CNC(=O)c1c(-c2ccc(F)cc2)oc2ccc(-c3cc(C(=O)NC(C)(C)C)ccc3OC)c(F)c12,1 to 250 nM
4,CNC(=O)c1c(-c2ccc(F)cc2)oc2ccc(-c3cc(C(=O)NC4(c5ncoc5C)CC4)c(OC)cc3C)cc12 [drawing 637],1 to 250 nM
5,CNC(=O)c1c(-c2ccc(F)cc2)oc2ccc(-c3cc(C(=O)NC4(c5ccccn5)CC4)c(OCC(=O)OC)cc3C)cc12 [drawing 642],250 to 1000 nM
6,CNC(=O)c1c(-c2ccc(F)cc2)oc2ccc(-c3cc(C(=O)NC4(c5ccncn5)CC4)ccc3C)cc12 [drawing 684],1 to 250 nM
7,CNC(=O)c1c(-c2ccc(F)cc2)oc2ccc(-c3cc(C(=O)NC4(c5ncc(F)cn5)CC4)c(OC)cc3C)c(F)c12 [drawing 689],1 to 250 nM
8,CNC(=O)c1c(-c2ccc(F)cc2)oc2ccc(-c3cc(C(=O)NC4(c5ccnnc5)CC4)c(OC)cc3C)c(F)c12 [drawing 701],1 to 250 nM

# Same assay, conditions: Hepatitis C virus, 24 h, second table titled Table 1d (numbers); HCV replicon; read-out: EC50
row,Structure (SMILES),EC50
1,CNC(=O)c1c(-c2ccc(F)cc2)oc2ccc(-c3cc(C(=O)NC4(c5ncoc5C)CC4)c(OC)cc3C)cc12 [drawing 709],2 nM
2,CNC(=O)c1c(-c2ccc(F)cc2)oc2ccc(-c3cc(C(=O)NC4(c5ccccn5)CC4)c(OCC(=O)OC)cc3C)cc12 [drawing 710],210 nM
3,CNC(=O)c1c(-c2ccc(F)cc2)oc2ccc(-c3cc(C(=O)NC4(c5ccncn5)CC4)ccc3C)cc12 [drawing 713],2 nM
4,CNC(=O)c1c(-c2ccc(F)cc2)oc2ccc(-c3cc(C(=O)NC4(c5ncc(F)cn5)CC4)c(OC)cc3C)c(F)c12 [drawing 714],10 nM
5,CNC(=O)c1c(-c2ccc(F)cc2)oc2ccc(-c3cc(C(=O)NC4(c5ccnnc5)CC4)c(OC)cc3C)c(F)c12 [drawing 715],56 nM

# Same assay, conditions: Hepatitis C virus, Table 1a; HCV replicon; read-out: EC50
row,Structure (SMILES),EC50
1,CNC(=O)c1c(-c2ccc(F)cc2)oc2ccc(OCC(=O)NCc3ccco3)cc12,1000 to 10000 nM
2,CNC(=O)c1c(-c2ccc(F)cc2)oc2ccc(OCC(=O)NCc3nc4ccccc4s3)cc12,1000 to 10000 nM

# Same assay, conditions: Hepatitis C virus, Table 1b; HCV replicon; read-out: EC50
row,Structure (SMILES),EC50
1,CCOc1ccc(C(=O)NCC(C)C)cc1-c1ccc2oc(-c3ccc(F)cc3)c(C(=O)NC)c2c1,< 250 nM
2,CNC(=O)c1c(-c2ccc(F)cc2)oc2ccc(-c3ccc(-c4cccnc4)c(C(=O)NCC(C)C)c3)cc12,< 250 nM
3,CCOc1cccc(-c2ccc(-c3ccc4oc(-c5ccc(F)cc5)c(C(=O)NC)c4c3)cc2C(=O)NCC(C)C)c1,< 250 nM
4,CNC(=O)c1c(-c2ccc(F)cc2)oc2ccc(-c3ccc(CCC(C)C)c(C(=O)NCC(C)C)c3)cc12,> 10000 nM
5,CNC(=O)c1c(-c2ccc(F)cc2)oc2ccc(-c3ccc(-c4cccc(C(=O)O)c4)c(C(=O)NCC(C)C)c3)cc12,1000 to 10000 nM
6,CCCn1cc(-c2ccc(-c3ccc4oc(-c5ccc(F)cc5)c(C(=O)NC)c4c3)cc2C(=O)NCC(C)C)cn1,< 250 nM
7,CNC(=O)c1c(-c2ccc(F)cc2)oc2ccc(-c3ccc(-c4ccccc4CO)c(C(=O)NCC(C)C)c3)cc12,< 250 nM
8,CNC(=O)c1c(-c2ccc(F)cc2)oc2ccc(-c3ccc(-c4ccoc4)c(C(=O)NCC(C)C)c3)cc12,< 250 nM
9,CNC(=O)c1c(-c2ccc(F)cc2)oc2ccc(-c3cc(C(=O)NCC(C)C)ccc3OCCN(Cc3ccccc3)Cc3ccccc3)cc12,1000 to 10000 nM
10,CNC(=O)c1c(-c2ccc(F)cc2)oc2cc(N(CCO)S(C)(=O)=O)c(-c3cccc(C(=O)NC(C)(C)c4ccncc4)c3)cc12,< 250 nM
11,CNC(=O)c1c(-c2ccc(F)cc2)oc2cc(N(CCO)S(C)(=O)=O)c(-c3cccc(C(=O)NC(C)(C)c4ccnc(C)c4)c3)cc12,< 250 nM
12,CNC(=O)c1c(-c2ccc(F)cc2)oc2ccc(-c3cccc(C(=O)NC(C)(C)c4ccccn4)c3)cc12,< 250 nM
13,CNC(=O)c1c(-c2ccc(F)cc2)oc2ccc(-c3cccc(C(=O)NC(C)(C)c4cccc(C)n4)c3)cc12,250 to 1000 nM
14,CNC(=O)c1c(-c2ccc(F)cc2)oc2cc(NS(C)(=O)=O)c(/C=C/C(=O)OC(C)(C)C)cc12,1000 to 10000 nM
15,CNC(=O)c1c(-c2ccc(F)cc2)oc2ccc(-c3cc(C(=O)NCC(C)C)ccc3OCCCN3C(=O)c4ccccc4C3=O)cc12,> 10000 nM
16,CNC(=O)c1c(-c2ccc(F)cc2)oc2ccc(-c3cc(C(=O)NC4(c5ccccn5)CC4)ccc3C3CC3)cc12,> 10000 nM
17,CNC(=O)c1c(-c2ccc(F)cc2)oc2ccc(-c3cc(C(=O)O)ccc3OC(F)(F)F)cc12,> 10000 nM
18,CNC(=O)c1c(-c2ccc(F)cc2)oc2ccc(-c3cc(C(=O)NC4(c5noc(-c6ccccc6)n5)CC4)ccc3C)cc12,< 250 nM
19,CNC(=O)c1c(-c2ccc(F)cc2)oc2ccc(-c3cc(C(=O)NC4(c5noc(C)n5)CC4)c(OC)cc3Cl)cc12,< 250 nM
20,CNC(=O)c1c(-c2ccc(F)cc2)oc2ccc(-c3cc(C(=O)NC4(c5noc(C)n5)CC4)c(OC)cc3C)cc12,< 250 nM
21,CNC(=O)c1c(-c2ccc(F)cc2)oc2ccc(-c3cc(C(=O)NC4(c5nnc(-c6ccccc6OC)[nH]5)CC4)ccc3C)cc12,< 250 nM
22,CCCc1nnc(C2(NC(=O)c3ccc(C)c(-c4ccc5oc(-c6ccc(F)cc6)c(C(=O)NC)c5c4)c3)CC2)[nH]1,< 250 nM
23,CNC(=O)c1c(-c2ccc(F)cc2)oc2ccc(-c3ccc(-c4ccccc4Cl)c(C(=O)NC4(c5ccccn5)CC4)c3)cc12,< 250 nM
24,CNC(=O)c1c(-c2ccc(F)cc2)oc2ccc(-c3cc(C(=O)NC4(c5cncnc5)CC4)ccc3C)cc12,< 250 nM
25,CNC(=O)c1c(-c2ccc(F)cc2)oc2ccc(-c3cc(C(=O)OC)c(OC)cc3OCC(N)=O)cc12,1000 to 10000 nM
26,CCNC(=O)c1cc(-c2ccc3oc(-c4ccc(F)cc4)c(C(=O)NC)c3c2F)c(C)cc1OC,< 250 nM
27,CNC(=O)c1c(-c2ccc(F)cc2)oc2ccc(-c3cc(C(=O)NC4(c5cc(C)on5)CC4)ccc3C)cc12,< 250 nM
28,CNC(=O)c1c(-c2ccc(F)cc2)oc2ccc(-c3cc(C(=O)NC4(c5cn(C)cn5)CC4)c(OC)cc3C)cc12,< 250 nM
29,CNC(=O)c1c(-c2ccc(F)cc2)oc2ccc(-c3cc(C(=O)NC4(c5ncc(C)s5)CC4)c(OC)cc3C)cc12,< 250 nM
30,CNC(=O)c1c(-c2ccc(F)cc2)oc2ccc(-c3cc(C(=O)NC4(c5nc(C)no5)CC4)ccc3C)cc12 [drawing 478],< 250 nM

# Same assay, conditions: Table 1b; HCV replicon; read-out: EC50
row,Structure (SMILES),EC50
1,CNC(=O)c1c(-c2ccc(F)cc2)oc2ccc(-c3cc(C(=O)NCC(C)C)ccc3OCCC3CNCCO3)cc12 (stereo not shown) [drawing 567],< 250 nM
